In patent US20240228504A1, “SUBSTITUTED TRICYCLIC AMIDES, ANALOGUES THEREOF, AND METHODS USING SAME” (Arbutus Biopharma Corporation, priority 2020, published 2024) one finds EC50 data, which are given here for 21 compounds.

The first experiment concerns HBV rcDNA in HepDE19 cells. The experiment is described as follows: HepDE19 assay with bDNA quantitation of HBV rcDNA. Type of experiment: cell-based, hepatitis B virus. Conditions: HepDE19 assay, inhibition of rcDNA formation, bDNA quantitation; read-out: DE-19bDNA EC50.
For the compound `CN(C(=O)c1cc2ccccc2[nH]1)C1COCc2[nH]c(=O)c3cc(F)ccc3c21` (single isomer, unassigned) [Compound 1, N-(8-Fluoro-6-oxo-1,4,5,6-tetrahydro-2H-pyrano[3,4-c]isoquinolin-1-yl)-N-methyl-1H-indole-2-carboxamide], the EC50 – broadly, the concentration needed to bring the measured effect to its halfway point – amounted to 8600 nM.

For the compound `CN(C(=O)c1cc2ccccc2[nH]1)C1COCc2[nH]c(=O)c3cc(F)ccc3c21` (single isomer, unassigned) [Compound 2, N-(8-Fluoro-6-oxo-1,4,5,6-tetrahydro-2H-pyrano[3,4-c]isoquinolin-1-yl)-N-methyl-1H-indole-2-carboxamide], the EC50 is 20 nM.

Take `CN(C(=O)C1Cc2cc(F)ccc2N1)C1COCc2[nH]c(=O)c3cc(F)c(F)cc3c21` (single isomer, unassigned) [Compound 5, N-(8,9-Difluoro-6-oxo-1,4,5,6-tetrahydro-2H-pyrano[3,4-c]isoquinolin-1-yl)-5-fluoro-N-methylindoline-2-carboxamide]: the 50% effective concentration (EC50) was found to be 20 nM.

Take `CN(C(=O)C1Cc2cc(F)ccc2N1)C1COCc2[nH]c(=O)c3cc(F)c(F)cc3c21` (single isomer, unassigned) [Compound 6, N-(8,9-Difluoro-6-oxo-1,4,5,6-tetrahydro-2H-pyrano[3,4-c]isoquinolin-1-yl)-5-fluoro-N-methylindoline-2-carboxamide]: the EC50 is 9600 nM.

For the compound `CN(C(=O)C1Cc2cc(F)ccc2N1)C1COCc2[nH]c(=O)c3cc(F)c(F)cc3c21` (single isomer, unassigned) [Compound 7, N-(8,9-Difluoro-6-oxo-1,4,5,6-tetrahydro-2H-pyrano[3,4-c]isoquinolin-1-yl)-5-fluoro-N-methylindoline-2-carboxamide], the EC50 was 10 nM.

For the compound `CN(C(=O)C1Cc2cc(F)ccc2N1)C1COCc2[nH]c(=O)c3cc(F)c(F)cc3c21` (single isomer, unassigned) [Compound 8, N-(8,9-Difluoro-6-oxo-1,4,5,6-tetrahydro-2H-pyrano[3,4-c]isoquinolin-1-yl)-5-fluoro-N-methylindoline-2-carboxamide], the EC50 stood at 1400 nM.

Turning to `CN(C(=O)c1cc2c(F)cccn2c1)C1COCc2[nH]c(=O)c3cc(F)c(F)cc3c21` (single isomer, unassigned) [Compound 9, N-(8,9-Difluoro-6-oxo-1,4,5,6-tetrahydro-2H-pyrano[3,4-c]isoquinolin-1-yl)-8-fluoro-N-methylindolizine-2-carboxamide], the concentration for a half-maximal effect (EC50) was determined as 3300 nM.

Take `CN(C(=O)c1cc2c(F)cccn2c1)C1COCc2[nH]c(=O)c3cc(F)c(F)cc3c21` (single isomer, unassigned) [Compound 10, N-(8,9-Difluoro-6-oxo-1,4,5,6-tetrahydro-2H-pyrano[3,4-c]isoquinolin-1-yl)-8-fluoro-N-methylindolizine-2-carboxamide]: the EC50 stood at 10 nM.

`CN(C(=O)c1cc2ccccn2c1)C1COCc2[nH]c(=O)c3cc(F)c(F)cc3c21` (single isomer, unassigned) [Compound 11, N-(8,9-Difluoro-6-oxo-1,4,5,6-tetrahydro-2H-pyrano[3,4-c]isoquinolin-1-yl)-N-methylindolizine-2-carboxamide]: the EC50 was determined as 5300 nM.

`CN(C(=O)c1cc2ccccn2c1)C1COCc2[nH]c(=O)c3cc(F)c(F)cc3c21` (single isomer, unassigned) [Compound 12, N-(8,9-Difluoro-6-oxo-1,4,5,6-tetrahydro-2H-pyrano[3,4-c]isoquinolin-1-yl)-N-methylindolizine-2-carboxamide]: the EC50 was determined as 10 nM.

Consider `CN(C(=O)c1cc2c(Cl)cccn2c1)C1COCc2[nH]c(=O)c3cc(F)c(F)cc3c21` (single isomer, unassigned) [Compound 17, 8-Chloro-N-(8,9-difluoro-6-oxo-1,4,5,6-tetrahydro-2H-pyrano[3,4-c]isoquinolin-1-yl)-N-methylindolizine-2-carboxamide], for which the half-maximal effective concentration (EC50) was found to be 1900 nM.

Take `CN(C(=O)c1cc2c(Cl)cccn2c1)C1COCc2[nH]c(=O)c3cc(F)c(F)cc3c21` (single isomer, unassigned) [Compound 18, 8-Chloro-N-(8,9-difluoro-6-oxo-1,4,5,6-tetrahydro-2H-pyrano[3,4-c]isoquinolin-1-yl)-N-methylindolizine-2-carboxamide]: the EC50 amounted to 10 nM.

As to `CN(C(=O)c1cc2c(F)cccc2[nH]1)C1COCc2[nH]c(=O)c3cc(F)ccc3c21` (single isomer, unassigned) [Compound 19, 4-Fluoro-N-(8-fluoro-6-oxo-1,4,5,6-tetrahydro-2H-pyrano[3,4-c]isoquinolin-1-yl)-N-methyl-1H-indole-2-carboxamide], the EC50 is 1500 nM.

Regarding `CN(C(=O)c1cc2c(F)cccc2[nH]1)C1COCc2[nH]c(=O)c3cc(F)ccc3c21` (single isomer, unassigned) [Compound 20, 4-Fluoro-N-(8-fluoro-6-oxo-1,4,5,6-tetrahydro-2H-pyrano[3,4-c]isoquinolin-1-yl)-N-methyl-1H-indole-2-carboxamide], the EC50 was found to be 20 nM.

Turning to `CN(C(=O)c1cc2ccccc2[nH]1)C1COCc2[nH]c(=O)c3cc(F)c(F)cc3c21` (single isomer, unassigned) [Compound 21, N-(8,9-Difluoro-6-oxo-1,4,5,6-tetrahydro-2H-pyrano[3,4-c]isoquinolin-1-yl)-N-methyl-1H-indole-2-carboxamide], the EC50 was 3300 nM.

The experiment is the same for the next values; noted with them: Hepatitis B virus, HepDE19, HepDE19 assay, inhibition of rcDNA formation, bDNA quantitation; read-out: DE-19bDNA EC50.
Regarding `CN(C(=O)c1ccc(C(F)(F)F)c(F)c1)C1COCc2[nH]c(=O)c3ccccc3c21` (racemic) [Compound 132, 3-Fluoro-N-methyl-N-(6-oxo-1,4,5,6-tetrahydro-2H-pyrano[3,4-c]isoquinolin-1-yl)-4-(trifluoromethyl)benzamide], the EC50 turned out to be 60 nM.

Regarding `CN(C(=O)c1ccc(C(F)(F)F)c(F)c1)C1COCc2[nH]c(=O)c3cscc3c21` (racemic) [Compound 133, 3-Fluoro-N-methyl-N-(4-oxo-4,5,8,9-tetrahydro-6H-pyrano[3,4-b]thieno[3,4-d]pyridin-9-yl)-4-(trifluoromethyl)benzamide], the EC50 was 60 nM.

`CN(C(=O)c1ccc(C(F)(F)F)c(F)c1)C1COCc2[nH]c(=O)c3cc(C#N)ccc3c21` (racemic) [Compound 134, N-(8-Cyano-6-oxo-1,4,5,6-tetrahydro-2H-pyrano[3,4-c]isoquinolin-1-yl)-3-fluoro-N-methyl-4-(trifluoromethyl)benzamide]: the concentration giving a half-maximal response (EC50) stood at 2800 nM.

Regarding `CN(C(=O)c1cc2sc(Cl)cc2[nH]1)C1COCc2[nH]c(=O)c3cc(F)ccc3c21` (racemic) [Compound 452, 2-Chloro-N-(8-fluoro-6-oxo-1,4,5,6-tetrahydro-2H-pyrano[3,4-c]isoquinolin-1-yl)-N-methyl-4H-thieno[3,2-b]pyrrole-5-carboxamide], the EC50 worked out at 80 nM.

Turning to `Cc1cc(F)cc2[nH]c(C(=O)N(C)C3COCc4[nH]c(=O)c5cc(F)ccc5c43)cc12` (racemic) [Compound 455, 6-Fluoro-N-(8-fluoro-6-oxo-1,4,5,6-tetrahydro-2H-pyrano[3,4-c]isoquinolin-1-yl)-N,4-dimethyl-1H-indole-2-carboxamide], the EC50 worked out at 20 nM.

Regarding `CN(C(=O)[C@@H]1Cc2ccccc2N1)C1COCc2[nH]c(=O)c3cc(F)ccc3c21` (single isomer, unassigned) [Compound 4], the EC50 came out at 130 nM.
